Data set [1] concerns the target T1, 5-HT3 serotonin receptor (Homo sapiens, UniProt P46098).
T1 sequence (P46098 24-478): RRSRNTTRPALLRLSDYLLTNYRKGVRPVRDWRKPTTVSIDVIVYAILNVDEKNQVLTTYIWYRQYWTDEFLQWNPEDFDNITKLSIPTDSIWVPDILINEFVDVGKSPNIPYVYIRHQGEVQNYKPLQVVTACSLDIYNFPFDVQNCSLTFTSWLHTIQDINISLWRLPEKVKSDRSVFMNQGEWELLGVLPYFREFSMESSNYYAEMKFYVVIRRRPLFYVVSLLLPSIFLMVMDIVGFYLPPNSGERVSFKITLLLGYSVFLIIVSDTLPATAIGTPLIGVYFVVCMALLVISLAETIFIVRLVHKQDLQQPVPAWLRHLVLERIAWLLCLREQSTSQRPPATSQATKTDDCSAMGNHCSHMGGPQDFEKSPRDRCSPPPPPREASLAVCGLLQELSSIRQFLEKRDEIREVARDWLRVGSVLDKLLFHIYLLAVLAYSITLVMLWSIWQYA
To be noted: Nebrisi et al. 2020, Front. Pharmacol. 11:1274; cited from earlier work.

The nature of data set [2]: Stability of Nanoemulsion Concentrate 3 (α-tocopherol and Vitamin B12 content) by LCMSMS. In kind it is physicochemical. The conditions noted are these: for Stability of Vitamin B12 in Nanoemulsion Concentrate 3: average of triplicate. The method, then:
At each time period (0, 7, 28, 60, 120, 150 and 180 days), triplicate samples were analysed for content of α-tocopherol and Vitamin B12.
(FIGS. 14 and 15, Table 13). Data reported in Table 13 and plotted in FIGS. 14 and 15 are average values of the triplicate measurements taken.

As for `COc1cc(CNC(=O)CCCC/C=C/C(C)C)ccc1O` [capsaicin], the “mode of action at the 5-HT3 serotonin receptor” value in data set [1] is given as “negative allosteric modulator”.

On to Vitamin B12, for which the “Stability of Vitamin B12 in Nanoemulsion Concentrate 3” value (“Stability of Vitamin B12” for short) in data set [2] (Refrigerated (2-4° C.), 0 days) came out at 28.67 ng/mL; in data set [2] (Refrigerated (2-4° C.), 7 days) it was 30.33 ng/mL; in data set [2] (Refrigerated (2-4° C.), 28 days), 29.33 ng/mL; in data set [2] (Refrigerated (2-4° C.), 60 days), 30.00 ng/mL; in data set [2] (Refrigerated (2-4° C.), 120 days), 32.00 ng/mL; in data set [2] (Refrigerated (2-4° C.), 150 days), 29.67 ng/mL. Besides, the “Stability of Vitamin B12” value in data set [2] (Refrigerated (2-4° C.), 180 days) amounted to 32.50 ng/mL; in data set [2] (Room Temperature (21-25° C.), 0 days), 28.67 ng/mL; in data set [2] (Room Temperature (21-25° C.), 7 days), 24.00 ng/mL; in data set [2] (Room Temperature (21-25° C.), 28 days) it was 22.67 ng/mL; in data set [2] (Room Temperature (21-25° C.), 60 days) it was 22.67 ng/mL; in data set [2] (Room Temperature (21-25° C.), 120 days), 19.67 ng/mL. The “Stability of Vitamin B12” value in data set [2] (Room Temperature (21-25° C.), 150 days) was 19.00 ng/mL; in data set [2] (Room Temperature (21-25° C.), 180 days), 16.50 ng/mL. The “stability in Nanoemulsion Concentrate 3 (in words)” value in data set [2] (after 180 days stored at 21-25° C.) is given as “some slight degradation”; in data set [2] (stored at 2-4° C., 180 days), “high degree of stability”.

(Values after US20260130395A1, “Water Dispersible Botanical Compositions” (Aquila Black Limited, priority 2021, published 2026).)
